Measurements published in PMC9330922, “Genomewide Analysis and Biological Characterization of Cathelicidins with Potent Antimicrobial Activity and Low Cytotoxicity from Three Bat Species” (Antibiotics, 2022).
Where a name gives a salt, the structure may show the parent alone. Read-outs that look alike come from different tables or passages of the source. No end group written: not given here.

Columns and labels:
[1] = tested on: Acinetobacter baumannii KCTC 23254; assay: microbe, parasite or virus in culture; type: cell-based; conditions: MHB; for MIC: Acinetobacter baumannii, KCTC23254, value in brackets, WST colorimetric, 37 °C 6 h + 2 h, triplicate, read-out: Minimum Inhibitory Concentration; for Minimum Inhibitory Concentration: Microbial Viability Assay Kit-WST, 1.5 × 10^5 CFU/well, 37 °C 6 h + 2 h coloring reagent, A450, triplicate
Protocol: (§1) The antibacterial activities of the chemically synthesized peptides were evaluated against a panel of bacteria consisting of 6 Gram-negative strains, including E. coli ATCC 25922 (American Type Culture Collection, Manassas, VA, USA), P. aeruginosa ATCC 27853, S. Typhimurium ATCC 14028, A. baumannii KCTC (Korean Collection for Type Cultures, Jeongeup, Korea) 23254, K. pneumoniae KCTC 1726, and E. cloacae ATCC 13047, and 6 Gram-positive strains, including S. aureus ATCC 6538, B. cereus ATCC 10876, E. faecalis ATCC 29212, S. agalactiae ATCC 27956, S. dysgalactiae ATCC 27957, and S. equi ATCC 43079. Ampicillin (Sigma-Aldrich, St. Louis, MO, USA), chloramphenicol (Sigma-Aldrich), and gentamicin sulfate (Sigma-Aldrich) were used as controls for antibacterial activity. The MIC was determined by a colorimetric method using the Microbial Viability Assay Kit-WST (Dojindo, Kumamoto, Japan) according to the manufacturer’s manual and the Clinical and Laboratory Standards Institute (CLSI) guidelines (2018). Four colonies of each bacterium were inoculated into 5 mL of Luria-Bertani (LB) broth medium (BD Bioscience, Franklin Lakes, NJ, USA) or brain heart infusion broth (BHIB; BD Bioscience) at 37 °C for 6 h with shaking at 220 rpm. E. faecalis and streptococci were cultured in BHIB because of their slow growth, whereas all other bacteria were cultured in LB medium. The cells were washed by sterile saline (0.9% NaCl) twice and adjusted in a single well of a 96-well plate at a cell density of 1.5 × 10^5 CFU/well in accordance with 0.5 McFarland standard. Subsequently, 180 µL/well of fresh Mueller-Hinton broth (MHB; BD Bioscience), except for E. faecalis and streptococci using BHIB was added to the plate using BHIB. Final concentrations of 1–40 µg/mL (0.3–19.3 μM) of each peptide and reference antibiotic were added to each well. The plates were then incubated at 37 °C for 6 h. Subsequently, 10 µL of the coloring reagent was added, and the mixture was incubated at 37 °C for 2 h. The absorbance of each well was measured at 450 nm using a microplate spectrophotometer (Bio-Rad, xMark spectrophotometer, Hercules, CA, USA). MIC values were determined when the difference in the absorbance values between treatments and blanks (media and coloring reagent only) was less than 0.05. Experiments were performed in triplicate.

[2] = tested on: Pseudomonas aeruginosa ATCC 27853; assay: microbe, parasite or virus in culture; type: cell-based; conditions: MHB; for Minimum Inhibitory Concentration: Microbial Viability Assay Kit-WST, 1.5 × 10^5 CFU/well, 37 °C 6 h + 2 h coloring reagent, A450, triplicate; for MIC: Pseudomonas aeruginosa, ATCC27853, value in brackets, WST colorimetric, 37 °C 6 h + 2 h, triplicate, read-out: Minimum Inhibitory Concentration
Protocol: as §1

[3] = tested on: Enterobacter cloacae subsp. cloacae ATCC 13047; assay: microbe, parasite or virus in culture; type: cell-based; conditions: MHB; for MIC: Enterobacter cloacae, ATCC13047, value in brackets, WST colorimetric, 37 °C 6 h + 2 h, triplicate, read-out: Minimum Inhibitory Concentration; for Minimum Inhibitory Concentration: Microbial Viability Assay Kit-WST, 1.5 × 10^5 CFU/well, 37 °C 6 h + 2 h coloring reagent, A450, triplicate
Protocol: as §1

[4] = tested on: Streptococcus equi subsp. zooepidemicus ATCC 43079; assay: microbe, parasite or virus in culture; type: cell-based; conditions: BHIB; for Minimum Inhibitory Concentration: Microbial Viability Assay Kit-WST, 1.5 × 10^5 CFU/well, 37 °C 6 h + 2 h coloring reagent, A450, triplicate; for MIC: Streptococcus equi, ATCC43079, value in brackets, WST colorimetric, 37 °C 6 h + 2 h, triplicate, read-out: Minimum Inhibitory Concentration
Protocol: as §1

[5] = tested on: Bacillus cereus ATCC 10876; assay: microbe, parasite or virus in culture; type: cell-based; conditions: MHB; for MIC: Bacillus cereus, ATCC10876, value in brackets, WST colorimetric, 37 °C 6 h + 2 h, triplicate, read-out: Minimum Inhibitory Concentration; for Minimum Inhibitory Concentration: Microbial Viability Assay Kit-WST, 1.5 × 10^5 CFU/well, 37 °C 6 h + 2 h coloring reagent, A450, triplicate
Protocol: as §1

[6] = tested on: Salmonella enterica serovar Typhimurium ATCC 14028; assay: microbe, parasite or virus in culture; type: cell-based; conditions: MHB; for Minimum Inhibitory Concentration: Microbial Viability Assay Kit-WST, 1.5 × 10^5 CFU/well, 37 °C 6 h + 2 h coloring reagent, A450, triplicate; for MIC: Salmonella enterica, value in brackets, WST colorimetric, 37 °C 6 h + 2 h, triplicate, read-out: Minimum Inhibitory Concentration
Protocol: as §1

[7] = tested on: Staphylococcus aureus ATCC 6538; assay: microbe, parasite or virus in culture; type: cell-based; conditions: MHB; for Minimum Inhibitory Concentration: Microbial Viability Assay Kit-WST, 1.5 × 10^5 CFU/well, 37 °C 6 h + 2 h coloring reagent, A450, triplicate; for MIC: Staphylococcus aureus, ATCC6538, value in brackets, WST colorimetric, 37 °C 6 h + 2 h, triplicate, read-out: Minimum Inhibitory Concentration
Protocol: as §1

[8] = tested on: Enterococcus faecalis ATCC 29212; assay: microbe, parasite or virus in culture; type: cell-based; conditions: BHIB; for MIC: Enterococcus faecalis, ATCC29212, value in brackets, WST colorimetric, 37 °C 6 h + 2 h, triplicate, read-out: Minimum Inhibitory Concentration; for Minimum Inhibitory Concentration: Microbial Viability Assay Kit-WST, 1.5 × 10^5 CFU/well, 37 °C 6 h + 2 h coloring reagent, A450, triplicate
Protocol: as §1

[9] = tested on: Escherichia coli ATCC 25922; assay: microbe, parasite or virus in culture; type: cell-based; conditions: MHB; for MIC: Escherichia coli, ATCC25922, 8 h, value in brackets, WST colorimetric, 37 °C 6 h + 2 h, triplicate, read-out: Minimum Inhibitory Concentration; for Minimum Inhibitory Concentration: Microbial Viability Assay Kit-WST, 1.5 × 10^5 CFU/well, 37 °C 6 h + 2 h coloring reagent, A450, triplicate
Protocol: as §1

[10] = tested on: Streptococcus agalactiae ATCC 27956; assay: microbe, parasite or virus in culture; type: cell-based; conditions: BHIB; for Minimum Inhibitory Concentration: Microbial Viability Assay Kit-WST, 1.5 × 10^5 CFU/well, 37 °C 6 h + 2 h coloring reagent, A450, triplicate; for MIC: Streptococcus agalactiae, ATCC27956, value in brackets, WST colorimetric, 37 °C 6 h + 2 h, triplicate, read-out: Minimum Inhibitory Concentration
Protocol: as §1

[11] = tested on: Klebsiella pneumoniae subsp. pneumoniae KCTC 1726; assay: microbe, parasite or virus in culture; type: cell-based; conditions: MHB; for MIC: Klebsiella pneumoniae, KCTC1726, read-out: Minimum Inhibitory Concentration
Protocol: as §1

[12] = tested on: Streptococcus dysgalactiae ATCC 27957; assay: microbe, parasite or virus in culture; type: cell-based; conditions: BHIB; for Minimum Inhibitory Concentration: Microbial Viability Assay Kit-WST, 1.5 × 10^5 CFU/well, 37 °C 6 h + 2 h coloring reagent, A450, triplicate; for MIC: Streptococcus dysgalactiae, ATCC27957, value in brackets, WST colorimetric, 37 °C 6 h + 2 h, triplicate, read-out: Minimum Inhibitory Concentration
Protocol: as §1

[13] = tested on: panel of 12 reference bacteria, comprised of 6 Gram-negative strains and 6 Gram-positive strains; type: cell-based; conditions: 6 h
Protocol: as §1

HaCaT cells = assay: In vitro cytotoxicity assay, WST-1 cell viability; type: cell-based, Human
Protocol: HaCaT cells were cultured in Dulbecco’s modified Eagle’s medium (DMEM; Hyclone^TM, Logan, UT, USA) with 10% fetal bovine serum (FBS; Hyclone^TM) and 1% penicillin/streptomycin (Pen-Strep; Hyclone^TM) up to 80% confluence at 37 ℃ and 5% CO2. Cells were detached from the plate by adding 0.25% trypsin-EDTA solution (Gibco^TM; Carlsbad, CA, USA). In a 96-well plate, 2 × 10^4 cells were seeded per well and cultured for 24 h. Subsequently, the medium was replaced with 100 μL DMEM (Hyclone^TM) containing 10% heat-inactivated FBS. Peptides were added to each well at concentrations of 64 μg/mL and 160 μg/mL. As references for complete cell lysis, 64 μg/mL melittin (Sigma-Aldrich) and Triton X-100 (Sigma-Aldrich) were used. Untreated cells were used as negative controls. After 24 h incubation at 37 ℃ and 5 % CO2, 10 μL of coloring solution (Cell Proliferation Reagent WST-1^TM; Sigma Aldrich) was added to each well according to the manufacturer’s instructions. The absorbance at 450 nm (treated group and control) and 650 nm (background) was measured in each well using a microplate reader (xMarkTM spectrophotometer; Bio-Rad). The cell viability was calculated using the following equation. All experiments were performed in triplicate. Cell viability (%) = 100 × (OD (treated group) − OD(Background))/(OD (negative control) − OD (Background))(2)

[14] = value in brackets, WST colorimetric, 37 °C 6 h + 2 h, triplicate
[15] = Microbial Viability Assay Kit-WST, 1.5 × 10^5 CFU/well, 37 °C 6 h + 2 h coloring reagent, A450, triplicate

| Compound | MIC [1] | Minimum Inhibitory Concentration [1] | Minimum Inhibitory Concentration [2] | MIC [2] | MIC [3] | Minimum Inhibitory Concentration [3] | Minimum Inhibitory Concentration [4] | MIC [4] | MIC [5] | Minimum Inhibitory Concentration [5] | Minimum Inhibitory Concentration [6] | MIC [6] | Minimum Inhibitory Concentration [7] | MIC [7] | MIC [8] | Minimum Inhibitory Concentration [8] | MIC [9] | Minimum Inhibitory Concentration [9] | Minimum Inhibitory Concentration [10] | MIC [10] | other results |
| --- | --- | --- | --- | --- | --- | --- | --- | --- | --- | --- | --- | --- | --- | --- | --- | --- | --- | --- | --- | --- | --- |
| CC1(C)S[C@@H]2[C@H](NC(=O)[C@H](N)c3ccccc3)C(=O)N2[C@H]1C(=O)O [Ampicillin] | > 229 µM | > 80 µg/mL | > 640 µg/mL | > 1830 µM | > 229 µM | > 80 µg/mL | 2 µg/mL | 5.7 µM | 229 µM | 80 µg/mL | > 80 µg/mL | > 229 µM | 2 µg/mL | 5.7 µM | 28.6 µM | 10 µg/mL | 14.3 µM | 5 µg/mL | 4 µg/mL | 11.4 µM | MIC [11, 14]: > 229 µM; Minimum Inhibitory Concentration [11, 15]: > 80 µg/mL; Minimum Inhibitory Concentration [12]: 2 µg/mL; MIC [12]: 5.7 µM |
| CNC(C)C1CCC(N)C(OC2C(N)CC(N)C(OC3OCC(C)(O)C(NC)C3O)C2O)O1 (stereo not drawn) [Gentamicin, gentamicin sulfate] | 21 µM | 10 µg/mL | 1 µg/mL | 2.1 µM | 2.1 µM | 1 µg/mL | 45 µg/mL | 94.5 µM | 2.1 µM | 1 µg/mL | 1 µg/mL | 2.1 µM | 1 µg/mL | 2.1 µM | 189 µM | 90 µg/mL | 2.1 µM | 1 µg/mL | 75 µg/mL | 158 µM | MIC [11, 15]: 19 µg/mL; MIC [11, 14]: 39.8 µM; Minimum Inhibitory Concentration [12]: 15 µg/mL; MIC [12]: 31.5 µM |
| O=C(N[C@H](CO)[C@H](O)c1ccc([N+](=O)[O-])cc1)C(Cl)Cl [chloramphenicol] | 118 µM | 38 µg/mL | 80 µg/mL | 248 µM | 15.5 µM | 5 µg/mL | 5 µg/mL | 15.5 µM | 31 µM | 10 µg/mL | 5 µg/mL | 15.5 µM | 7.5 µg/mL | 23.2 µM | 31 µM | 10 µg/mL | 9.3 µM | 3 µg/mL | 5 µg/mL | 15.5 µM | MIC [11, 14]: > 248 µM; Minimum Inhibitory Concentration [11, 15]: > 80 µg/mL; Minimum Inhibitory Concentration [12]: 4 µg/mL; MIC [12]: 12.4 µM |
| GIFILKHRRPIGRGIEIT [ΔML-CATH] |  |  |  |  |  |  |  |  |  |  |  |  |  |  |  |  |  |  |  |  | MIC (no observable antibacterial activity) [13]: > 13.7 µM |
| IAGRIAGKLIGDAINRHRERNRQRR [ΔPD-CATH] |  |  |  |  |  |  |  |  |  |  |  |  |  |  |  |  |  |  |  |  | MIC (no observable antibacterial activity) [13]: > 13.7 µM |
| ILGPALRIGGRIAGRIAGKLIGDAINRHRERNRQRRG [PD-CATH] |  |  |  |  |  |  |  |  |  |  |  |  |  |  |  |  |  |  |  |  | MIC, range over strains [13]: 0.7 to 7.3 µM; concentration at which the viability of human keratinocyte was affected (HaCaT cells): 160 µg/mL |
| ILGRLRDLLRRGGRKIGQGLERIGQRIQGFFSNREPMEES [HA-CATH] |  |  |  |  |  |  |  |  |  |  |  |  |  |  |  |  |  |  |  |  | MIC, range over strains [13]: 1.1 to 7.3 µM |
| LLRRGGRKIGQGLERIGQRIQGF [ΔHA-CATH] |  |  |  |  |  |  |  |  |  |  |  |  |  |  |  |  |  |  |  |  | MIC (no observable antibacterial activity) [13]: > 13.7 µM |
| LNPLIKAGIFILKHRRPIGRGIEITGRGIKKFFSK [ML-CATH] |  |  |  |  |  |  |  |  |  |  |  |  |  |  |  |  |  |  |  |  | MIC, range over strains [13]: 0.3 to 8.8 µM; MICs, range [13]: 0.5 to 0.8 µM |
| Triton X-100 |  |  |  |  |  |  |  |  |  |  |  |  |  |  |  |  |  |  |  |  | Cell Viability ± SD (HaCaT cells): 8.9 ± 0.05 % |
